Assays:
recombinant rat L-FABP = target: T1, recombinant rat L-FABP (Rattus norvegicus, UniProt P02692); assay: L-FABP secondary structure by circular dichroism (CD); details: L-FABP 1 μM, ligand 10 μM
T1 construct: made in house
T1 sequence (P02692 1-127): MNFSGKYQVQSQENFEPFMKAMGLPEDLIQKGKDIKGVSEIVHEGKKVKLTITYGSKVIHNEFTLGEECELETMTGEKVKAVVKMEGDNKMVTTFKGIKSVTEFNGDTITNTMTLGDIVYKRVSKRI
Description: Circular dichroism (CD) spectra were obtained utilizing a JASCO J-815 CD spectrometer (JASCO Analytical Instruments, Easton, MD, USA). Each sample for CD analysis contained recombinant rat L-FABP (1 μM) in 10 mM potassium phosphate (pH 7.4) with or without ligand (10 μM). Samples were scanned from 190 to 250 nm using the following conditions: step resolution, 1 nm; bandwidth, 2 nm; sensitivity, 10 mdeg; scan rate, 50 nm/min; and time constant, 1 s. For each measurement, 10 scans were averaged, background-subtracted, smoothed using the Means-Movement smoothing method (convolution width, 5) and converted to mean residue molar ellipticity utilizing the Spectra Manager Version 2 software as supplied by the instrument manufacturer (Spectra Analysis Version 2.03.04, Build 5). The percentage composition of α-helices (regular, distorted, total), β-sheets (regular, distorted, total), turns, and unordered structures was determined utilizing the CDPro program as supplied by the instrument manufacturer using the SDP48 reference set (soluble + denatured protein). This program allows the percentage calculation of various secondary structures by three different methods: CDSSTR, CONTIN, and SELCON3. Statistical analysis was performed by one-way analysis of variance (ANOVA) combined with the Newman-Keuls multiple-comparisons posttest (GraphPad Prism Version 3.03, San Diego, CA, USA).

[1] = system: PPARα transcription of CPT1A, CPT2, ACOX1; assay: rtPCR of CPT1A, CPT2, ACOX1 mRNA in wild-type mouse primary hepatocytes; assay type: cell-based; details: inhibitor 10 μg/mL, 5 hr
Description: (§1) Mouse hepatocytes were isolated from livers of male wild-type and L-FABP null mice as described. To study the effect of TOFA and C75 at different glucose levels, mouse hepatocytes were cultured overnight with DMEM/F-12 supplemented with 5% FBS. Cells were incubated with glucose-free DMEM supplemented with fatty acid-free BSA (40 μM), 100 nM insulin, 10 nM dexamethasone, and without (no inhibitor) or with the de novo fatty acid synthesis inhibitors C75 or TOFA (10 μg/mL) for 30 min (1 mL/well). Cells were incubated further for 5 hr with 6 or 20 mM glucose without or with the inhibitors.
(§2) Transcription of key enzymes in mitochondrial (CPT1A and CPT2) and peroxisomal (ACOX1) β-oxidation of long chain fatty acid (LCFA) was determined by rtPCR similarly as described. Briefly, the RNeasy mini kit from Qiagen Sciences (MD, USA) was used as per the manufacturer's instructions to isolate total RNA, which was then quantified spectrophotometrically. Quantitative real-time PCR was performed with an ABI PRISM 7000 Sequence Detection System (SDS) from Applied Biosystems (Foster City, CA, USA) to determine relative mRNA expression for CPT1A, CPT2, and ACOX1. The thermal protocol was as follows: 48°C for 30 min, 95°C for 10 min before the first cycle, 95°C for 15 sec, and 60°C for 60 sec, repeated 40 times. TaqMan One-Step Master Mix and Gene Expression Assays for mouse CPT1A (Mm 00550438_m1), CPT2 (Mm 00487202_m1), and ACOX1 (Mm 00443579_m1) were purchased from Applied Biosystems (Life Technologies, Carlsbad, CA, USA). Triplicates of each sample were analyzed with ABI PRISM 7000 SDS software (Applied Biosystems) to determine ΔCt relative to a positive control (18S housekeeping gene). The fold change in the abundance of CPT1A, CPT2, and ACOX1 mRNAs was determined in primary mouse hepatocytes treated with albumin (40 μM) in the absence and presence of lipid synthesis inhibitors (C75, TOFA, 10 μg/mL) in glucose-free DMEM medium supplemented with 100 nM insulin, 10 nM dexamethasone, and either 6 or 20 mM glucose. The comparative 2^−ΔΔCt calculation method was used as described in User Bulletin 2, ABI Prism 7000 SDS (Applied Biosystems), and earlier. Finally, protein levels of liver fatty acid binding protein (L-FABP), sterol carrier protein-2 (SCP-2), acyl CoA binding protein (ACBP), peroxisome proliferator activated receptor (PPARα), liver X receptor-α (LXRα), carbohydrate response element binding protein (ChREBP), and sterol response element binding protein (SREBP) were determined by western blotting as described.

[2] = system: PPARα transcription of CPT1A, CPT2, ACOX1; assay: rtPCR of CPT1A, CPT2, ACOX1 mRNA in L-FABP (−/−) null mouse primary hepatocytes; assay type: cell-based; details: for PPARα transcription of CPT1A, CPT2, ACOX1 (mRNA): 6 mM glucose; for PPARα transcription of CPT1A, CPT2, ACOX1 (mRNA) / Ability to activate PPARα transcription of CPT1A, CPT2, ACOX1 (mRNA): inhibitor 10 μg/mL, 5 hr
Text: Wild-type mice on a C57BL/6N background purchased from Charles River Laboratories (Wilmington, MA, USA) were obtained from the National Cancer Institute (Frederick Cancer Research and Development Center, Frederick, MD, USA). L-FABP (−/−) null mice were obtained by targeted disruption of the L-FABP gene and backcrossed to C57Bl/6N background to the N10 (99.9% homogeneity) generation. For hepatocyte isolation, livers were collected from male mice aged 3–6 mo. Mouse protocols were approved by the Institutional Animal Care and Use Committee (IACUC) at Texas A&M University. Mice were kept under a constant 12/12 light-dark cycle and had access to food and water ad libitum.
as §1, §2

[3] = system: mouse primary hepatocytes; assay: Hepatocyte cytosolic glucose level; assay type: cell-based; details: for Cytosolic glucose / Fold increase of cytosolic glucose versus no inhibitor: inhibitor 10 μg/mL; for Fold increase of cytosolic glucose by inhibitor: high extracellular glucose (20 mM); for Fold increase of cytosolic glucose with increasing glucose from 6 to 20 mM: in the presence of inhibitor 10 μg/mL
Description: as §1
Hepatocytes were plated 2 × 10^5 per well in 12-well tissue culture plates (Becton Dickinson and Company, Franklin Lakes, NJ, USA). After incubation with culture medium containing TOFA or C75 with increasing glucose level as described previously, hepatocytes were washed quickly with a cold solution of MgCl2 (100 mM) with 0.1 mM phloretin [46]. Cells were scraped from the dishes with PBS plus protease inhibitor, and cells were broken open with a probe sonicator (Sonic Dismembrator 550, Fisher Scientific, Waltham, MA, USA). Samples were sedimented at 10,000 g, 4°C for 20 min. The supernatant was used for glucose analysis with the Amplite Glucose Quantitation Kit (AAT Bioquest, Inc. Sunnyvale, CA, USA) as instructed by the manufacturer. The number of cultured primary hepatocytes in each sample was calculated based on amount of protein (Bradford Assay, Sigma, St. Louis, MO, USA) compared with reference samples with a known number of hepatocytes. Cytosolic glucose concentration was calculated using 7.4 × 10^−12 liter/cell as volume of the hepatocytes.

Row | SMILES | Effect on L-FABP secondary structure (overall) (recombinant rat L-FABP) | PPARα transcription of CPT1A, CPT2, ACOX1 (mRNA) ([1]; 6 mM glucose) | PPARα transcription of CPT1A, CPT2, ACOX1 (mRNA) ([1]; 20 mM glucose) | PPARα transcription of CPT1A, CPT2, ACOX1 (mRNA) [2] | Ability to activate PPARα transcription of CPT1A, CPT2, ACOX1 (mRNA) ([2]; 20 mM glucose) | Cytosolic glucose ([3]; 6 mM glucose in medium) [mM] | Fold increase of cytosolic glucose versus no inhibitor ([3]; 6 mM glucose in medium) | Cytosolic glucose ([3]; 20 mM glucose in medium) [mM] | Fold increase of cytosolic glucose by inhibitor [3] [fold] | Fold increase of cytosolic glucose with increasing glucose from 6 to 20 mM [3] [fold] | Effect on proportion of all types of β-sheet of L-FABP (recombinant rat L-FABP) | Effect on proportion of α-helix of L-FABP (recombinant rat L-FABP) | Effect on turn structure of L-FABP (recombinant rat L-FABP) | Effect on unordered structure of L-FABP (recombinant rat L-FABP) | Decrease of PPARα transcription of CPT1A, CPT2, or ACOX1 ([2]; 20 mM glucose, TOFA 10 μg/mL) [%]
1 | C=C1C(=O)OC(CCCCCCCC)C1C(=O)O (stereo not shown) [C75, 4-methylene-2-octyl-5-oxotetrahydrofuran-3-carboxylic acid] | did not alter | neither TOFA nor C75 significantly altered | induced | lack of effect | abolished | 4 | ~ 2 fold | 13 | ~2 | ~4 | – | – | – | – | –
2 | CCCCCCCCCCCCCCOc1ccc(C(=O)O)o1 [TOFA, 5-tetradecyloxy-2-furancarboxylic acid] | significantly altered | neither TOFA nor C75 significantly altered | induced | lack of effect | abolished | 4 | ~ 2 fold | 20 | ~2 | ~5 | increased | did not alter | decreased | did not alter | ~50
